Data from patent US9261498B2, “Biomarker for sensitivity to mTOR inhibitor therapy in kidney cancer” (The Regents of the University of California, priority 2005, dated 2016).
Entries after “also recorded” stand apart in the source; their conditions may differ.

System: SN12C-VHLshRNA-HIF-2α mutant xenograft tumors
Test: Subcutaneous xenograft tumor growth, VHL knockdown cells with HIF-2α mutant
Assay type: in vivo, SCID mice
Conditions: 0.1 mg/kg CCI-779 daily
Method: FIGS. 4A-4C. Rescue of CCI-779 growth suppression by HIF-1-α and HIF-2-α prolyl hydcroxylase mutants. SN12C-CSCG-VHLshRNA cells stably infected with the prolyl hydroxylation defective cDNA mutants p-Babe-puro-HA-HIF-1α (P564A), HIF-2α (P405A; P531A) or backbone vector were treated with CCI-779 or vehicle and harvested 24 hours later. (a) Lysates were subjected to immunoblotting for HIF-1α, HIF-2α, GLUT-1, CA-IX, p-eIF4G, p-S6 and β-Actin as loading control. (b) SN12C-VHLshRNA, SN12C-VHLshRNA-HIF-1α mutant, SN12C-VHLshRNA-HIF-2α mutant cells (1×10^5) were cultured in 10% serum rich media, in the presence of vehicle, 1 or 10 nM of CCI-779 for 5 days. Cell growth was measured by cell counts (n=3). […]
For in vitro experiments, cells (5×10^4) were plated and treated with 1 and 10 nM CCI-779 (kind gift of J. Gibbons, Wyeth) or vehicle (ethanol). On day 5-post treatment, cells were trypsinized, resuspended in DMEM with 10% FBS and counted using the VI CELL counter (Beckman Coulter), according to the manufacturer's instructions. […] In vivo tumorigenicity was measured by injection of 5×10^5 SN12C-CSCG, ACHN-CSCG, SN12C-CSCG-VHLshRNAi, ACHN-CSCG-VHLshRNAi, SN12C-CSCG-VHLshRNAi-pBABE, SN12C-CSCG-VHLshRNAi-pBABE-HA-HIF-2α (P405A; P531A) cells in 100 μl of Matrigel (Collaborative Biomedical) subcutaneously into the flanks of SCID mice. […]

SMILES: CO[C@H]1C[C@@H]2CC[C@@H](C)[C@@](O)(O2)C(=O)C(=O)N2CCCC[C@H]2C(=O)O[C@H]([C@H](C)C[C@@H]2CC[C@@H](OC(=O)C(C)(CO)CO)[C@H](OC)C2)CC(=O)[C@H](C)/C=C(\C)[C@@H](O)[C@@H](OC)C(=O)[C@H](C)C[C@H](C)/C=C/C=C/C=C/1C [CCI-779]
- growth inhibitory effect of CCI-779 in HIF mutant xenografts: completely rescued; also recorded: reversal of both the in vitro and in vivo sensitivity
